We go through 1 compound from patent US9562057B2, “(Thieno[2,3-b][1,5]benzoxazepin-4-yl)piperazin-1-yl compounds as dual activity H1 inverse agonists/5-HT2A antagonists” (Eli Lilly and Company, priority 2013, dated 2017).

The target of data set [1] is T1, recombinant 5-HT2A receptor (human) (Homo sapiens, UniProt P28223).
T1 construct: expressed in transfected cells; host or cells: AV-12
Briefly: 5-HT2A competition binding assay ([3H]-Ketanserin, SPA). The procedure:
[^3H]-Ketanserin binding experiments are carried out in SPA 96-well format. Membranes used in this assay are prepared from AV-12 cells stably expressing recombinant 5-HT2A receptor (human). The incubation is initiated by the addition of a mixture of WGA YSi SPA beads (1 mg/well, Perkin Elmer (MA, USA), RPNQ0011) and 2 μg membranes to assay buffer (67 mM Tris, 0.5 mM EDTA; pH 7.6) containing 3.1 nM [^3H]-Ketanserin and varying concentrations of the test compound (10 point concentration response curves). Non-specific binding is determined in the presence of 20 μM 1-(1-naphthyl) piperazine. Samples are incubated for 4 hr. at room temperature (22° C.) and then read in a Microbeta® Trilux.
Binding data analysis Curves are evaluated using a 4-parameter logistic nonlinear equation to obtain the concentration of competitor causing 50% inhibition of radioligand binding (IC50). Equilibrium dissociation constants (Ki) are calculated according to the equation Ki=IC50/(1+L/Kd), where L equals the concentration of radioligand used in the experiment and Kd equals the equilibrium dissociation constant of the radioligand for the receptor, determined from standard saturation analysis or homologous competition experiments. Reported values for Ki, where n values are indicated, are shown as geometric mean±the standard error of the mean (SEM), with the number of replicate determinations indicated by n. […]

In data set [2] the target is T2, recombinant 5-HT2C receptor (human) (Homo sapiens, UniProt P28335).
T2 construct: expressed in transfected cells; host or cells: AV-12
T2 sequence (P28335 33-458): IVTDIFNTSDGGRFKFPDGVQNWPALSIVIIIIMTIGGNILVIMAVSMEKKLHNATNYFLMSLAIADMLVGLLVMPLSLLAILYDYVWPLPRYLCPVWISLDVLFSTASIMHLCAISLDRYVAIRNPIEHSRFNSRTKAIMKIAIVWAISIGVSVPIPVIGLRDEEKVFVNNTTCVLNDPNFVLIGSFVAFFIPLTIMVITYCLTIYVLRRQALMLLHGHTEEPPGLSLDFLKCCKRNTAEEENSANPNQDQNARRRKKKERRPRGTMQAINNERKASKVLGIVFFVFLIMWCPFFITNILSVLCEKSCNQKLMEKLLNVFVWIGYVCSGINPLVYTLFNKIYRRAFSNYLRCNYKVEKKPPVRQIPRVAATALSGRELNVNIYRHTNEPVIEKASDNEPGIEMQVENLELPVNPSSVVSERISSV
Briefly: 5-HT2C competition binding assay ([125I]-(±)DOI, SPA). The procedure:
[^125I]-(±)DOI binding experiments are carried out in SPA 96-well format. Membranes used in this assay are prepared from AV-12 cells stably expressing recombinant 5-HT2C receptor (human). The incubation is initiated by the addition of a mixture of WGA PVT SPA beads (0.5 mg/well, Perkin Elmer (MA, USA), RPNQ0001) and 2.5 μg membranes to assay buffer (50 mM Tris-HCl, 10 mM MgCl2, 0.5 mM EDTA, 10 μM pargyline, 0.1% ascorbic acid, pH7.4) containing 0.2 nM [[^125I]-(±)DOI and varying concentrations of the test compound (10 point concentration response curves). Non-specific binding is determined in the presence of 20 μM 1-(1-naphthyl) piperazine. Samples are incubated for 4 hr. at room temperature (22° C.) and then read in a Microbeta® Trilux.
Binding data analysis Curves are evaluated using a 4-parameter logistic nonlinear equation to obtain the concentration of competitor causing 50% inhibition of radioligand binding (IC50). Equilibrium dissociation constants (Ki) are calculated according to the equation Ki=IC50/(1+L/Kd), where L equals the concentration of radioligand used in the experiment and Kd equals the equilibrium dissociation constant of the radioligand for the receptor, determined from standard saturation analysis or homologous competition experiments. […]

Another data set concerns the target Adrenergic alpha1A (Homo sapiens, UniProt P35348). Briefly: Adrenergic alpha1A binding. The source says:
(§1) Further, the compounds of the invention may be tested in binding assays and functional activity assays by well known methods for other physiologically important receptors such as, but not limited to, the hERG channel, other serotonin receptors (specifically 5-HT1B and 5-HT1D receptors, lack of agonist activity at 5-HT2B receptors, 5-HT2C, 5-HT5, 5-HT6, and 5-HT7 receptors), dopaminergic receptors (specifically D1, D2, and D3), GABAA receptors, adrenergic receptors and monoamine transporters.

The target in a further data set is Adrenergic alpha1B (Homo sapiens, UniProt P35368). The data set is described as follows: Adrenergic alpha1B binding.
Chain of Adrenergic alpha1B (P35368 whole entry): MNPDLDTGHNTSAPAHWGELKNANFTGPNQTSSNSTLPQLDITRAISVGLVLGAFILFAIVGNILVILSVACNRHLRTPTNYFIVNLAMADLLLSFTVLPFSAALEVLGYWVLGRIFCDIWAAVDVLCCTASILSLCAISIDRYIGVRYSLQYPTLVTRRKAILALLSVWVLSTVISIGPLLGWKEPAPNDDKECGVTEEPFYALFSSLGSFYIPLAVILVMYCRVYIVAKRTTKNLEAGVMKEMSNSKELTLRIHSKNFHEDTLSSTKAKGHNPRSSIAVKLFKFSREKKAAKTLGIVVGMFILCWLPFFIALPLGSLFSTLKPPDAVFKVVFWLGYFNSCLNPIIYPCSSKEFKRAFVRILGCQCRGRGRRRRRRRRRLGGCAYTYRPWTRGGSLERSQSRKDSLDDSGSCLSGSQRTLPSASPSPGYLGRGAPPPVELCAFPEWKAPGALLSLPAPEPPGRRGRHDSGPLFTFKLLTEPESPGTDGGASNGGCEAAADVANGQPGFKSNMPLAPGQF
Excerpt: as §1

A further data set has as its target 5-HT5 (Homo sapiens, UniProt P47898). Briefly: 5-HT5 binding.
Excerpt: as §1

Another data set deals with hERG Channel (Homo sapiens, UniProt Q12809). Briefly: hERG channel inhibition. The conditions noted are these: inhibition at 10 μM.
Chain of hERG Channel (Q12809 whole entry): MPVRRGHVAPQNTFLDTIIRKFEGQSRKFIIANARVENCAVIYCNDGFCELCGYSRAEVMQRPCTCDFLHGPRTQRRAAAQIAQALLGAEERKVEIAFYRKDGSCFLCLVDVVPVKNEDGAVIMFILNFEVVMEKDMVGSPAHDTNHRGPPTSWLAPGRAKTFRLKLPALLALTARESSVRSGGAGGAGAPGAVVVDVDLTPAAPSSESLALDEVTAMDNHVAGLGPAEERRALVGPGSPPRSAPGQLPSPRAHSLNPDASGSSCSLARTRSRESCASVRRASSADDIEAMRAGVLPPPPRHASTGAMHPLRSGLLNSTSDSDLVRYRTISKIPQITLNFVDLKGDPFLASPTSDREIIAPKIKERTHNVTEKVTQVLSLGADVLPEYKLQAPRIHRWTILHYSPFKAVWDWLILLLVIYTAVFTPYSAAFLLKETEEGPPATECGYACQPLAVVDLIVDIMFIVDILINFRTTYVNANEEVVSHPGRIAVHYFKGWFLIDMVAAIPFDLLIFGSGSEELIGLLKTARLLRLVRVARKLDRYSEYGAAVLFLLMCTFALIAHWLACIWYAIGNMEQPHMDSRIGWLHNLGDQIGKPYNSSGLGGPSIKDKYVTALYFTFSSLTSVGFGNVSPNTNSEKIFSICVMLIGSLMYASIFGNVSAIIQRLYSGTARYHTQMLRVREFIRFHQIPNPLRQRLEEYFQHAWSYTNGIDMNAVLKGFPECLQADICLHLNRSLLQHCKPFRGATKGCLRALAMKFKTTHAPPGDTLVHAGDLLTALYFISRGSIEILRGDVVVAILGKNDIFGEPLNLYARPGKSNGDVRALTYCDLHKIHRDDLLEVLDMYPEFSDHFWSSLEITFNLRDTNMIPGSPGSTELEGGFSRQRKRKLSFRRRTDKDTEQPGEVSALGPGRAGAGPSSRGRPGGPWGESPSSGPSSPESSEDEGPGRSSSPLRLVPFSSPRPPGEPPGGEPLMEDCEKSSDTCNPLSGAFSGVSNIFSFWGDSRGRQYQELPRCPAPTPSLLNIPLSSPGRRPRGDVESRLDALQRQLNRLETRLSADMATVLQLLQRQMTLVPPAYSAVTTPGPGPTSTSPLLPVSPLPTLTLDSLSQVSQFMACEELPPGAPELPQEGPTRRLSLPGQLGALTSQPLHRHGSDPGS
Excerpt: as §1
In general terms: hERG is a cardiac potassium channel; its block is linked to QT prolongation.

The structures appear in SMILES notation. Structures can show the parent of a compound that is named as a salt.

Chain of Adrenergic alpha1A (P35348 whole entry): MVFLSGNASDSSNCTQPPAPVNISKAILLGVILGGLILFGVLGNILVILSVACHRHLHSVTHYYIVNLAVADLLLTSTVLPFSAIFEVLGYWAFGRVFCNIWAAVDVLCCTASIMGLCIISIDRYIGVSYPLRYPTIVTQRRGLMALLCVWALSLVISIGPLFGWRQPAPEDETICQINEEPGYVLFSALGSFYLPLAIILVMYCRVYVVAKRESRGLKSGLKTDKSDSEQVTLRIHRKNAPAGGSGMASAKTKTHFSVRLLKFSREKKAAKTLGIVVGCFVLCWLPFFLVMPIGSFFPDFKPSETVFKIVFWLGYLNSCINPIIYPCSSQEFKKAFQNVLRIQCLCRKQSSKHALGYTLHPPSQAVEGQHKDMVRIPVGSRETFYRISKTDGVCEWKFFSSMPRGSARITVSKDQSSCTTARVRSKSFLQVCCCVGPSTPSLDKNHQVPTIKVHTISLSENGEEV
T1 sequence (P28223 whole entry): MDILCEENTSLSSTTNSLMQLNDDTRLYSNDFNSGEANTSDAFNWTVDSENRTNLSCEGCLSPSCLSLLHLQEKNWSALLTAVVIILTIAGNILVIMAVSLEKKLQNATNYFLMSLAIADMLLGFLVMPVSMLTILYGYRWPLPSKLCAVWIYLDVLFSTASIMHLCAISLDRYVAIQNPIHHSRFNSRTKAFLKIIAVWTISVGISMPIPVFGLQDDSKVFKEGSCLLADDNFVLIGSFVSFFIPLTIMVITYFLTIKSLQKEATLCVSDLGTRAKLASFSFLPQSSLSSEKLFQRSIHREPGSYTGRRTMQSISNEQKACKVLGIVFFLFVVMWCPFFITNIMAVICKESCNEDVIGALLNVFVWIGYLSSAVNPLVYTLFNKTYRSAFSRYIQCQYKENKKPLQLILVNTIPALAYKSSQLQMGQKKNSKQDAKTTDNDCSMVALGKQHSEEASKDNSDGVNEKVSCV
Chain of 5-HT5 (P47898 whole entry, species assumed): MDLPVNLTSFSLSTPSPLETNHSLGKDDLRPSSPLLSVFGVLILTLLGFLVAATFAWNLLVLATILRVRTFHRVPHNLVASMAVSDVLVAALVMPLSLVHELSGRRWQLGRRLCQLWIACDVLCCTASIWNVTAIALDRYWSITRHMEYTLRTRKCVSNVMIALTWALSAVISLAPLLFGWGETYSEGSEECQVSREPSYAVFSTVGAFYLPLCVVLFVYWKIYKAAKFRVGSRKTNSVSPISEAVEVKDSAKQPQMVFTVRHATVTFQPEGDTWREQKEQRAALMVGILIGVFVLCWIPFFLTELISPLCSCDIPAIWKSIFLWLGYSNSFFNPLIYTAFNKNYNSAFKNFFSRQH

As to `Cc1ccc2c(c1)Oc1sc(C3CC3)cc1C(N1CCN(CC(C)(C)C(=O)O)CC1)=N2` [Example 2, 3-[4-(2-Cyclopropyl-8-methyl-thieno[2,3-b][1,5]benzoxazepin-4-yl)piperazin-1-yl]-2,2-dimethyl-propanoic acid dihydrochloride], the Ki (commonly a dissociation constant, usually derived from enzyme kinetics or from competition with a known ligand) in data set [1] was 0.0102 µM; in data set [2], 0.493 µM; at Adrenergic alpha1A it was 4.62 µM; at Adrenergic alpha1B, over 15.5 µM; at 5-HT5 it was 3.48 µM. At hERG Channel, the “hERG Channel (μM)” value turned out to be 53% inhibition.
